{"source": "patent US6894043B1", "about": "“Benzothiadiazine derivatives, preparation method and pharmaceutical compositions containing same” (Les Laboratoires Servier, priority 1999, dated 2005)", "tested_on": "AMPA receptors", "assay": "Excitatory fluxes induced by AMPA in Xenopus oocytes (2-electrode voltage-clamp)", "format": "cell-based", "settings": "AMPA 30 μM; Xenopus oocytes injected with rat cortex poly(A+) mRNA; 20-24° C.", "description": "mRNAs are prepared from cerebral cortex of male Wistar rat by the guanidium thiocyanate/phenol/chloroform method. The poly(A^+)mRNAs are isolated by chromatography on oligo-dT cellulose and injected with 50 ng per oocyte. The oocytes are left for 2 to 3 days' incubation at 10° C. to enable expression of the receptors and are then stored at 8-10° C.\nElectrophysiological recording is carried out in a plexiglass chamber at 20-24° C. in an OR2 medium (J. Exp. Zool., 1973, 184, 321-334) by the 2-electrode “voltage-clamp” method, with a 3rd electrode being placed in the bath to serve as reference.\nAll the compounds are administered via the incubation medium and the electric current is measured at the end of the period of administration. AMPA is used in a concentration of 30 μM. For each compound studied, there is determined the concentration that doubles (EC2X) or quintuples (EC5X) the intensity of the flux induced by AMPA alone (50 to 100 nA)."}
{"smiles": "CCN1CNS(=O)(=O)c2cc(I)ccc21", "note": "[Example 4, 4-Ethyl-7-iodo-2,3-dihydro-4H-1,2,4-benzothiadiazine 1,1-dioxide]", "values": [{"measurement": "EC2X (concentration that doubles the intensity of the flux induced by AMPA alone)", "result": "95 ± 31", "unit": "µM"}, {"measurement": "EC5X (concentration that quintuples the intensity of the flux induced by AMPA alone)", "result": ">300", "unit": "µM"}]}
{"smiles": "CCN1CNS(=O)(=O)c2cc(Br)ccc21", "note": "[Example 3, 7-Bromo-4-ethyl-2,3-dihydro-4H-1,2,4-benzothiadiazine 1,1-dioxide]", "values": [{"measurement": "EC2X (concentration that doubles the intensity of the flux induced by AMPA alone)", "result": "29 ± 6", "unit": "µM"}, {"measurement": "EC5X (concentration that quintuples the intensity of the flux induced by AMPA alone)", "result": "78 ± 16", "unit": "µM"}]}
